Test results reported in PubChem BioAssay (NCI).
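Interpolation was linear, between the two tested concentrations surrounding the appropriate level; five concentrations were tested over 48 hours in 96-well plates. The concentration for full growth arrest is given as TGI.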

Legend:
Experiment in all cases: NCI tumour cell line growth inhibition, 48 h
T-47D breast = test system: T-47D breast
MCF7 breast = test system: MCF7 breast
SF-539 CNS = test system: SF-539 CNS
NCI/ADR-RES ovarian = test system: NCI/ADR-RES ovarian
SNB-19 CNS = test system: SNB-19 CNS
CCRF-CEM leukemia = test system: CCRF-CEM leukemia
OVCAR-8 ovarian = test system: OVCAR-8 ovarian
SF-295 CNS = test system: SF-295 CNS
LOX IMVI melanoma = test system: LOX IMVI melanoma
NCI-H226 lung = test system: NCI-H226 lung

Compound | TGI (T-47D breast) | TGI (MCF7 breast) | TGI (SF-539 CNS) | TGI (NCI/ADR-RES ovarian) | TGI (SNB-19 CNS) | TGI (CCRF-CEM leukemia) | TGI (OVCAR-8 ovarian) | TGI (SF-295 CNS) | TGI (LOX IMVI melanoma) | TGI (NCI-H226 lung)
COc1ccc(C2c3cc4c(cc3OC(N3CCCCC3)C2C)OCO4)cc1 (stereo not given) | > 100 µM | > 100 µM | > 100 µM | > 100 µM | > 100 µM | > 100 µM | > 100 µM | > 100 µM | > 100 µM | 
CCOc1cc(C2SCC(=O)N2c2nc3cc4sc(N5C(=O)CSC5c5ccc(O)c(OCC)c5)nc4cc3s2)ccc1O (stereo not given) | > 100 µM | > 86.3 µM | > 100 µM | > 100 µM | > 100 µM | > 84.2 µM | > 100 µM | > 100 µM | > 100 µM | > 94.4 µM
c1ccc(C2=C(c3ccccc3)P(c3ccccc3)C2)cc1 (stereo not given) | > 100 µM | > 100 µM | > 100 µM | > 100 µM |  | > 100 µM | > 100 µM | > 100 µM |  | > 100 µM
O=[N+]([O-])c1ccc(Cl)cc1C=NC12CC3CC(CC(C3)C1)C2 | > 93.8 µM | > 100 µM | > 86.7 µM | > 86.9 µM | > 100 µM | 35.6 µM | > 100 µM | > 100 µM | > 70.3 µM | > 100 µM
COc1ccc2c(c1)CC[C@@H]1[C@@H]2CC[C@]2(C)C(=O)/C(=C/c3cc(OC)c(OC)c(OC)c3)C[C@@H]12 | > 100 µM | > 100 µM | 67 µM | 34.6 µM | > 100 µM |  |  | 74.6 µM |  | 
N#Cc1c(N2CCN(c3ccc([N+](=O)[O-])cc3)CC2)[n+](=O)c2ccc(Cl)cc2n1[O-] |  | > 33.3 µM | 4.37 µM | 7.85 µM | > 32.8 µM | 4.2 µM | > 22.9 µM | > 28.3 µM | 1.15 µM | 13.8 µM
O=C1/C(=C/c2ccco2)NC(=S)N1CN1CCOCC1 |  | > 100 µM |  | > 100 µM | > 100 µM | > 100 µM | > 100 µM | > 100 µM | > 100 µM | > 100 µM
CCS(=O)(=O)c1c2cc(OC)ccc2nc2ccc(OC)cc12 | > 100 µM | > 100 µM | > 100 µM | > 100 µM | > 100 µM | > 100 µM | > 100 µM | > 100 µM | > 100 µM | > 100 µM
COc1cc(/C=C/C(=O)OC[C@H](Br)[C@H](OC(C)=O)c2ccc3c(c2)OCO3)cc(OC)c1OC | > 100 µM | > 100 µM | > 100 µM | > 100 µM | > 100 µM | > 100 µM | > 100 µM | > 100 µM | > 100 µM | > 100 µM
O=C(O)/C=C/C(=O)O | > 100 µM | > 100 µM | > 100 µM | > 100 µM | > 100 µM | > 100 µM | > 100 µM | > 100 µM | > 100 µM | > 100 µM
C/C=C\C(CC(=O)NCCC1CN(C(=O)c2ccccc2)c2ccccc21)CC(=O)OC (stereo not given) | > 100 µM | > 100 µM |  | > 100 µM | > 100 µM |  | > 100 µM | > 100 µM |  | 
Cn1ccc(C(=O)NCCCCCNC(=O)c2ccn(C)c(=O)c2O)c(O)c1=O | > 100 µM |  |  | > 100 µM | > 100 µM | > 100 µM | > 100 µM |  | > 100 µM | > 100 µM
CCOC12SC(=Nc3ccc(C)cc3)NN1C(=S)N(C)N=C2C (stereo not given) |  |  | > 100 µM |  | > 100 µM | > 100 µM | > 100 µM | > 100 µM | > 100 µM | > 100 µM
NC(=O)CS(=O)CC(N)C(=O)O (stereo not given) | > 100 µM |  |  | > 100 µM | > 100 µM |  | > 100 µM | > 100 µM | > 100 µM | > 100 µM
COc1ccc2c(c1)-c1nn(CCN(C)C)c3ccc(C(=O)NCCCN(C)CCCNC(=O)c4ccc5c6c(nn5CCN(C)C)-c5cc(OC)ccc5Nc46)c(c13)N2 |  | 1.97 µM | 1.56 µM | > 62.9 µM | 1.04 µM | 0.141 µM | 0.977 µM | 3.38 µM | 0.898 µM | 0.541 µM
O=C1C[C@H](c2ccccc2)C2(C(=O)c3ccccc3C2=O)[C@H](c2ccccc2)C1 | > 100 µM |  |  | > 100 µM | > 100 µM | > 100 µM | > 100 µM | > 100 µM |  | > 100 µM
O=C(/C=C/c1ccccc1O)/C=C/c1ccccc1O |  |  | 3.57 µM | 4.88 µM | 4.86 µM |  | 5.08 µM | 3.89 µM |  | 
O=C1O[C@]2(c3ccccc3)C(c3ccccc3)=C[C@]2(C(=O)c2ccccc2)C1=O | > 100 µM | 81.8 µM | 50.8 µM | > 100 µM | > 100 µM |  | > 100 µM | > 100 µM | 79 µM | 98.6 µM
Cc1ccc2nc(Cl)c(/C=N/N3C(=O)/C(=C/c4ccc(N(C)C)cc4)N=C3c3ccccc3)cc2c1 | > 100 µM | > 100 µM | 52.4 µM | > 100 µM | > 100 µM | > 100 µM | > 100 µM | > 100 µM | > 100 µM | 
CC1(C)[C@@H]2C[C@H]1C(Cc1cccc(C[C@H]3c4cc(-c5ccccn5)ncc4[C@H]4C[C@@H]3C4(C)C)c1)c1cc(-c3ccccn3)ncc12 (stereo not given in full) | > 100 µM | > 100 µM | > 28.4 µM | > 57.6 µM | > 100 µM |  | > 44.2 µM | > 54.3 µM | 4.15 µM | 
OCC(O)C(O)C(O)C(/C=N\Nc1ncnc2ccc(Br)cc12)=N/Nc1ncnc2ccc(Br)cc12 (stereo not given) | > 100 µM | > 100 µM | > 100 µM |  | > 100 µM |  | > 100 µM | > 100 µM | > 100 µM | > 100 µM
C#CCOC(=O)C(N)CCCN=C(N)N (stereo not given) | > 100 µM | > 100 µM | > 100 µM | > 100 µM | > 100 µM | > 100 µM | > 100 µM |  | > 100 µM | > 100 µM
COc1nc2[nH]ccc2c(=O)n1C |  |  | > 100 µM |  | > 100 µM | > 100 µM | > 100 µM | > 100 µM | > 100 µM | 
COc1cc(-c2nc3nc(N4CCN(C)CC4)ccc3[nH]2)c(OC)c2[nH]c(COC(C)=O)nc12 | > 100 µM | 43.9 µM | 35.4 µM | > 100 µM | > 100 µM |  | > 100 µM | > 100 µM | 73.6 µM | 
